Measurements: article PMC4911001, “Synthesis and Biological Evaluation of Novel Phosphatidylcholine Analogues Containing Monoterpene Acids as Potent Antiproliferative Agents” (PLoS ONE, 2016)

How the values were obtained:
[1] = system: LoVo (colon cancer); test: Antiproliferative assay in vitro, SRB test, LoVo; type: cell-based, human; conditions: 72 hours exposure, mean ± SD of 3–5 independent experiments, n.a. = no activity in concentration of 5, 25, 125, 625 μM
Description: (§1) Established in vitro, human cancer cell lines: MV4-11 (human biphenotypic B myelomonocytic leukaemia), A-549 (non-small cell lung cancer), MCF-7 (breast cancer), LoVo (colon cancer), LoVo/DX (colon cancer drug resistant), HepG2 (liver cancer) and BALB/3T3 (normal mice fibroblasts) were used.
(§2) The leukaemia cell line was cultured in RPMI 1640 medium (IIET, Wroclaw, Poland) with supplemented with 2 mM L-glutamine adjusted to contain 1.0 mM sodium pyruvate, 10% fetal bovine serum (all from Sigma-Aldrich Chemie GmbH, Steinheim, Germany). A549, LoVo and LoVo/DX cells were cultured in the mixture of RPMI 1640+Opti-MEM (1:1) (both from Gibco, Scotland, UK), MCF-7 cells in Eagle medium (IIET, Wroclaw, Poland), HepG2 in DMEM medium (Gibco, Scotland, UK), BALB/3T3 in DMEM medium (IIET, Wroclaw, Poland) supplemented with 2 mM L-glutamine and 1.0 mM sodium pyruvate, 10% fetal bovine serum (all from Sigma-Aldrich, Germany). The MCF-7 cell culture was supplemented with 0.8 mg/L of insulin (Sigma-Aldrich Chemie GmbH, Steinheim, Germany) and the LoVo/DX cell culture was supplemented with 0.1 μg/mL of doxorubicin (Accord). All culture media were supplemented with 100 units/mL penicillin, and 100 μg/mL streptomycin (both from Polfa Tarchomin S.A., Warsaw, Poland). All cell lines were grown at 37°C with 5% CO2 humidified atmosphere.
(§3) Prior to usage, the compounds were dissolved in DMSO or in mixture of 99.8% ethanol and DMSO (1:1) to the concentration of 25 or 50 mM, and subsequently diluted in culture medium to reach the required concentrations (ranging from 5 to 625 μM).
(§4) 24 hours before addition of the tested compounds, the cells were plated in 96-well plates at density of 1×10^4 cells per well. An assay was performed after 72 hours exposure to varying concentrations of the tested agents.
(§5) Cytotoxic test MTT was applied for the cytotoxicity screening against leukaemia cells growing in suspension culture and were carried out according to the method described before. Cytotoxic test SRB was applied against A549, MCF-7, LoVo, LoVo/DX, BALB/3T3 and HepG2 cells and were carried out according to the method described before.
(§6) The results were calculated as an IC50 (inhibitory concentration 50)–the concentration of tested agent, which inhibits proliferation of 50% of the cell population. Each compound in each concentration was tested in triplicate in a single experiment, which was repeated 3–5 times.

[2] = system: HepG2 (liver cancer); test: Antiproliferative assay in vitro, SRB test, HepG2; type: cell-based, human; conditions: mean ± SD of 3–5 independent experiments, n.a. = no activity in concentration of 5, 25, 125, 625 μM
Description: as §1, §2, §3, §4, §5, §6

[3] = system: MV4-11 (human biphenotypic B myelomonocytic leukaemia); test: Antiproliferative assay in vitro, MTT test, MV4-11; type: cell-based; conditions: mean ± SD of 3–5 independent experiments, n.a. = no activity in concentration of 5, 25, 125, 625 μM
Description: as §1, §2, §3, §4, §5, §6

[4] = system: BALB/3T3 (normal mice fibroblasts); test: Antiproliferative assay in vitro, SRB test, BALB/3T3; type: cell-based; conditions: mean ± SD of 3–5 independent experiments, n.a. = no activity in concentration of 5, 25, 125, 625 μM
Description: as §1, §2, §3, §4, §5, §6

[5] = system: LoVo/DX (colon cancer drug resistant); test: Antiproliferative assay in vitro, SRB test, LoVo/DX; type: cell-based, human; conditions: 72 hours exposure, doxorubicin-resistant line, mean ± SD of 3–5 independent experiments, n.a. = no activity in concentration of 5, 25, 125, 625 μM
Description: as §1, §2, §3, §4, §5, §6

[6] = system: tested cancer cell lines; test: Antiproliferative activity compared with free terpene acids, cancer cell line panel; type: cell-based, human; conditions: for IC50 values, fold lower than those of free terpene acids 1a, 1b: towards leukaemia, LoVo, LOVO/DX and breast cell lines; for antiproliferative activity, fold higher than free acids: compared with free terpene acids
Description: as §4, §5, §6
The aim of this study was to determine whether a joining the terpenes with PC has impact on their biological activity. Increasing the lipophilicity of active compounds was expected to raise their cytotoxicity. We observed that almost all synthesized compounds were cytotoxic against tested cancer cell lines. […] Upon careful evaluation of data it can be concluded that cytotoxic activity of terpene-modified PCs is depended on the position of terpene moiety in the backbone of PC. […] These compounds stronger than corresponding acids inhibit the proliferation of cancer cells. […] Their IC50 values were more than 9-fold lower than those determined for free terpene acids 1a, 1b towards leukaemia, LoVo, LOVO/DX and breast cell lines. […] Generally, activity of terpene-modified PC increased in the following sequence: 1-isoprenoyl-LPC < diisoprenoyl-PC < monoisoprenoyl-PC.

[7] = system: drug resistant LOVO/DX line versus drug sensitive LoVo line; test: Resistance index (RI), LoVo/DX versus LoVo; type: cell-based, human; conditions: RI = IC50 LoVo/DX / IC50 LoVo; 0<RI<2 able to overcome drug resistance; 2<RI<10 moderate ability; RI>10 no influence
Description: Using the obtained IC50 values, the resistance indexes (RI) were calculated by dividing the IC50 values of the compounds tested against the cells of drug resistant cell LOVO/DX line by respective values obtained against the cells of drug sensitive LoVo line. According to Harker et al. three categories of the cells could be distinguished: (a) the cells are drug-sensitive—if the ratio approaches 0–2; (b) the cells are moderately drug-resistant—if the ratio ranges from 2 to 10; (c) the cells are markedly drug-resistant—if the ratio is higher than 10.
We calculated also the resistance indexes (RI) by dividing the IC50 values of the compounds tested against the cells of drug resistant cell LoVo/DX by respective values obtained against the drug sensitive LoVo cell line (Table 2). […] Compounds 7a, 7b and 10b have the highest ability to overcome the barrier of resistance (RI = 1.08, 1.06 and 1.09).

[8] = system: MCF-7 (breast cancer); test: Antiproliferative assay in vitro, SRB test, MCF-7; type: cell-based, human; conditions: mean ± SD of 3–5 independent experiments, n.a. = no activity in concentration of 5, 25, 125, 625 μM
Description: as §1, §2, §3, §4, §5, §6

[9] = system: A-549 (non-small cell lung cancer); test: Antiproliferative assay in vitro, SRB test, A-549; type: cell-based, human; conditions: mean ± SD of 3–5 independent experiments, n.a. = no activity in concentration of 5, 25, 125, 625 μM
Description: as §1, §2, §3, §4, §5, §6

[10] = Homo sapiens, HepG2, 72 hours exposure
[11] = Homo sapiens, MV4-11, 72 hours exposure
[12] = Mus musculus, BALB/3T3, 72 hours exposure
[13] = Homo sapiens, MCF7, 72 hours exposure
[14] = Homo sapiens, A549, 72 hours exposure

Row | SMILES | IC50 ([1]; Homo sapiens, LoVo) | IC50 [2, 10] | IC50 [3, 11] | IC50 [4, 12] | IC50 ([5]; Homo sapiens, LoVo/DX) | IC50 values, fold lower than those of free terpene acids 1a, 1b [6] | Resistance index (RI) [7] | IC50 [8, 13] | IC50 [9, 14] | antiproliferative activity, fold higher than free acids [6] | IC50 ±SD, HepG2 ([2]; 72 hours exposure) | IC50 ±SD, A-549 ([9]; 72 hours exposure) | IC50 [1] | IC50 ([2]; 72 hours exposure) | IC50 ([3]; 72 hours exposure) | IC50 ([4]; 72 hours exposure) | IC50 [5] | IC50 ([8]; 72 hours exposure) | IC50 ([9]; 72 hours exposure)
1 | CCCCCCCCCCCCCCCC(=O)OC[C@H](COP(=O)([O-])OCC[N+](C)(C)C)OC(=O)CC(C)CCC=C(C)C (stereo partly drawn) [Compound 7b] | 53.9 ± 2.97 µM | 103 ± 11.1 µM | 45.7 ± 7.63 µM | 112 ± 29.3 µM | 57.1 ± 2.5 µM | more than 9 fold | 1.06 | 155 ± 88.3 µM | 61.2 ± 6 µM |  |  |  |  |  |  |  |  |  | 
2 | CC(C)=CCCC(C)=CC(=O)OC[C@H](COP(=O)([O-])OCC[N+](C)(C)C)OC(=O)C=C(C)CCC=C(C)C (mixture of isomers) [Compound 3a] | 248 ± 9.3 µM | 285 ± 5 µM | 96.7 ± 33.9 µM | 273 ± 6.76 µM | 279 ± 10.8 µM |  | 1.12 | 236 ± 21.3 µM | 274 ± 9.42 µM | 2-3 fold |  |  |  |  |  |  |  |  | 
3 | COc1cccc2c1C(=O)c1c(O)c3c(c(O)c1C2=O)C[C@@](O)(C(=O)CO)C[C@@H]3O[C@H]1C[C@H](N)[C@H](O)[C@H](C)O1 [Doxorubicin, reference compound] | 0.117 ± 0.012 µM |  |  |  | 6.53 ± 0.93 µM |  | 55.81 |  |  |  |  |  |  |  |  |  |  |  | 
4 | CC(C)=CCCC(C)=CC(=O)O [Compound 1a, Geranic acid, reference compound] | 263 ± 32 µM |  | 311 ± 96.4 µM |  | 492 ± 44.5 µM |  | 1.87 | 447 ± 72 µM |  |  | did not showed any reduction of cells growth | did not showed any reduction of cells growth |  |  |  |  |  |  | 
5 | CC(C)=CCCC(C)=CC(=O)OC[C@@H](O)COP(=O)([O-])OCC[N+](C)(C)C (mixture of isomers) [Compound 9a] | 246 ± 9.9 µM |  | 324 ± 116 µM |  | 526 ± 89.6 µM |  |  | 523 ± 97.2 µM |  |  | not active | not active |  |  |  |  |  |  | 
6 | CC(C)=CCCC(C)CC(=O)O (stereo not drawn) [Compound 1b, citronellic acid, reference compound] | 249 ± 26.4 µM |  | 254 ± 68 µM |  | 533 ± 36.7 µM |  |  | 453 ± 96 µM |  |  | did not showed any reduction of cells growth | did not showed any reduction of cells growth |  |  |  |  |  |  | 
7 | CCCCCCCCCCCCCCCC(=O)OC[C@H](COP(=O)([O-])OCC[N+](C)(C)C)OC(=O)C=C(C)CCC=C(C)C (mixture of isomers) [Compound 7a, 1'-palmitoyl-2'-(E)-geranoyl-sn-glycero-3'-phosphocholine + 1'-palmitoyl-2'-(Z)-geranoyl-sn-glycero-3'-phosphocholine] | 51.1 ± 5.1 µM | 200 ± 6.1 µM | 60.9 ± 10.9 µM | 186 ± 15.2 µM | 55 ± 2.12 µM | more than 9 fold | 1.08 | 105 ± 6.51 µM | 72.1 ± 14.4 µM |  |  |  |  |  |  |  |  |  | 
8 | CC(C)=CCCC(C)CC(=O)OC[C@@H](O)COP(=O)([O-])OCC[N+](C)(C)C (stereo partly drawn) [Compound 9b] | 287 ± 35.1 µM |  | 382 ± 24.5 µM |  | 552 ± 18.5 µM |  | 1.93 |  |  |  |  |  |  |  |  |  |  |  | 
9 | CC(C)=CCCC(C)CC(=O)OC[C@H](COP(=O)([O-])OCC[N+](C)(C)C)OC(=O)CC(C)CCC=C(C)C (stereo partly drawn) [Compound 3b] | 194 ± 22 µM | 280.7 ± 1.8 µM | 130 ± 37.8 µM | 284 ± 6.3 µM | 251 ± 23.4 µM |  | 1.3 | 243 ± 45.1 µM | 203 ± 47.7 µM | 2-3 fold |  |  |  |  |  |  |  |  | 
10 | CCCCCCCCCCCCCCCC(=O)O[C@H](COC(=O)CC(C)CCC=C(C)C)COP(=O)([O-])OCC[N+](C)(C)C (stereo partly drawn) [Compound 10b] | 52.4 ± 3.6 µM | 233 ± 14.7 µM | 57.1 ± 6.37 µM | 92.9 ± 15.3 µM | 57 ± 1.8 µM | more than 9 fold | 1.09 | 209 ± 25.7 µM | 60.2 ± 6.4 µM |  |  |  |  |  |  |  |  |  | 
11 | N.N.[Cl][Pt][Cl] [Cisplatin, reference compound] |  |  |  |  |  |  |  |  |  |  |  |  | 2.56 ± 0.35 µM | 2.38 ± 0.64 µM | 1.3 ± 0.47 µM | 4.2 ± 1.1 µM | 3.17 ± 0.2 µM | 8.1 ± 0.03 µM | 8.6 ± 0.7 µM
12 | CCCCCCCCCCCCCCCC(=O)O[C@H](COC(=O)C=C(C)CCC=C(C)C)COP(=O)([O-])OCC[N+](C)(C)C (mixture of isomers) [Compound 10a] | 34.6 ± 1.6 µM | 70.3 ± 8.6 µM | 38.2 ± 9.3 µM | 65.8 ± 3.34 µM | 51.9 ± 6.7 µM | more than 9 fold | 1.5 | 52.5 ± 5.9 µM | 49.5 ± 1.88 µM |  |  |  |  |  |  |  |  |  | 
